Legend:
C57BLKS/J-m-db mice = assay: Determination of blood glucose levels in db/db mice; assay type: in vivo; conditions: 1 μg subcutaneous, plasma glucose one hour after injection vs baseline
[1] = test system: Harlan Sprague Dawley (HSD) rats; assay: Gastric emptying in rats (phenol red gel gavage); assay type: in vivo; conditions: for EC50 (gastric emptying): conscious male HSD rats, gastric contents remaining 20 min after gavage; for effect on gastric emptying (in words): male HSD rats, dose-response 0.1-100 μg
Text: This experiment followed a modification of the method of Scarpignato, et al., Arch. Int. Pharmacodyn. […] Male Harlan Sprague Dawley (HSD) rats were used. […] ID. […] Twenty minutes after gavage, rats were anesthetized using 5% halothane, the stomach exposed and clamped at the pyloric and lower esophageal sphincters using artery forceps, removed and opened into an alkaline solution which was made up to a fixed volume. Stomach content was derived from the intensity of the phenol red in the alkaline solution, measured by absorbance at a wavelength of 560 nm. In separate experiments on 7 rats, the stomach and small intestine were both excised and opened into an alkaline solution. […] ID.

[2] = target: cyclase (RINm5f membranes); assay: Cyclase activation study (cAMP by SPA immunoassay, membranes); assay type: biochemical; conditions: cAMP in membranes, 20 minutes incubation at 37° C.
Description: GLP-1(7-36) [NH2] was purchased from Bachem (Torrance, Calif.). All other peptides were prepared using synthesis methods such as those described therein. All chemicals were of the highest commercial grade. The cAMP SPA immunoassay was purchased from Amersham. The radioligands were purchased from New England Nuclear (Boston, Mass.). […] Cells were grown to confluence then harvested and homogenized using on a Polytron homogenizer. Cell homogenates were stored frozen at −70° C. until used. […] Membranes and peptides were combined in […] of assay buffer in 96 well filter-bottom plates (Millipore Corp., Bedford, Mass.). […] Supernatant cAMP contents were quantitated by SPA immunoassay. […] The biological activity of a particular sample was expressed as an EC50 value, calculated as described above.

For CC[C@H](C)[C@H](NC(=O)[C@H](Cc1ccccc1)NC(=O)[C@H](CC(C)C)NC(=O)[C@H](CCCNC(=N)N)NC(=O)[C@@H](NC(=O)[C@H](C)NC(=O)[C@H](CCC(=O)O)NC(=O)[C@H](CCC(=O)O)NC(=O)[C@H](C)NC(=O)[C@H](CC(C)C)NC(=O)[C@H](CCC(N)=O)NC(=O)[C@H](CCCCN)NC(=O)[C@H](CO)NC(=O)[C@H](CC(C)C)NC(=O)[C@H](CC(=O)O)NC(=O)[C@H](CO)NC(=O)[C@@H](NC(=O)[C@H](Cc1ccccc1)NC(=O)[C@@H](NC(=O)CNC(=O)[C@H](CCC(=O)O)NC(=O)CNC(=O)[C@@H](N)Cc1c[nH]cn1)[C@@H](C)O)[C@@H](C)O)C(C)C)C(=O)N[C@@H](CCC(=O)O)C(=O)N[C@@H](Cc1ccccc1)C(=O)N[C@@H](CC(C)C)C(=O)N[C@@H](CCCCN)C(=O)N[C@@H](CC(N)=O)C(N)=O [Compound 13], the “% drop in glucose” value (C57BLKS/J-m-db mice) was 45%, the “EC50 (gastric emptying)” value [1] was 60 µg and the “effect on gastric emptying (in words)” value [1] was “potent inhibitors of gastric emptying”. For the same molecule, the EC50 [2] was 79.6 nM.
In the case of CC[C@H](C)[C@H](NC(=O)[C@H](Cc1ccccc1)NC(=O)[C@H](CC(C)C)NC(=O)[C@H](CCCNC(=N)N)NC(=O)[C@@H](NC(=O)[C@H](C)NC(=O)[C@H](CCC(=O)O)NC(=O)[C@H](CCC(=O)O)NC(=O)[C@H](CCC(=O)O)NC(=O)[C@H](CC(C)C)NC(=O)[C@H](CCC(N)=O)NC(=O)[C@H](C)NC(=O)[C@H](CO)NC(=O)[C@H](CC(C)C)NC(=O)[C@H](CC(=O)O)NC(=O)[C@H](CO)NC(=O)[C@@H](NC(=O)[C@H](Cc1ccccc1)NC(=O)[C@@H](NC(=O)CNC(=O)[C@H](CCC(=O)O)NC(=O)CNC(=O)[C@@H](N)Cc1c[nH]cn1)[C@@H](C)O)[C@@H](C)O)C(C)C)C(=O)N[C@@H](CCC(=O)O)C(=O)N[C@@H](Cc1ccccc1)C(=O)N[C@@H](CC(C)C)C(=O)N[C@@H](CCCCN)C(=O)N[C@@H](CC(N)=O)C(N)=O [Compound 10], the “% drop in glucose” value (C57BLKS/J-m-db mice) is reported as 46%, the “EC50 (gastric emptying)” value [1] is reported as 0.27 µg and the “effect on gastric emptying (in words)” value [1] is reported as “potent inhibitors of gastric emptying”. It also gave an EC50 [2] of 5.37 nM.
In the case of CC[C@H](C)[C@H](NC(=O)[C@H](Cc1ccccc1)NC(=O)[C@H](CC(C)C)NC(=O)[C@H](CCCNC(=N)N)NC(=O)[C@@H](NC(=O)[C@H](C)NC(=O)[C@H](C)NC(=O)[C@H](CCC(=O)O)NC(=O)[C@H](CCC(=O)O)NC(=O)[C@H](CC(C)C)NC(=O)[C@H](CCC(N)=O)NC(=O)[C@H](CCCCN)NC(=O)[C@H](CO)NC(=O)[C@H](CC(C)C)NC(=O)[C@H](CC(=O)O)NC(=O)[C@H](CO)NC(=O)[C@@H](NC(=O)[C@H](Cc1ccccc1)NC(=O)[C@@H](NC(=O)CNC(=O)[C@H](CCC(=O)O)NC(=O)CNC(=O)[C@@H](N)Cc1c[nH]cn1)[C@@H](C)O)[C@@H](C)O)C(C)C)C(=O)N[C@@H](CCC(=O)O)C(=O)N[C@@H](Cc1ccccc1)C(=O)N[C@@H](CC(C)C)C(=O)N[C@@H](CCCCN)C(=O)N[C@@H](CC(N)=O)C(N)=O [Compound 15], the “% drop in glucose” value (C57BLKS/J-m-db mice) is reported as 45% and the EC50 [2] is reported as 1.05 nM.
In the case of CC[C@H](C)[C@H](NC(=O)[C@H](Cc1ccccc1)NC(=O)[C@H](CC(C)C)NC(=O)[C@H](CCCNC(=N)N)NC(=O)[C@@H](NC(=O)[C@H](C)NC(=O)[C@H](CCC(=O)O)NC(=O)[C@H](CCC(=O)O)NC(=O)[C@H](CCC(=O)O)NC(=O)[C@H](CC(C)C)NC(=O)[C@H](CCC(N)=O)NC(=O)[C@H](CCCCN)NC(=O)[C@H](CO)NC(=O)[C@H](CC(C)C)NC(=O)[C@H](CC(=O)O)NC(=O)[C@H](C)NC(=O)[C@@H](NC(=O)[C@H](Cc1ccccc1)NC(=O)[C@@H](NC(=O)CNC(=O)[C@H](CCC(=O)O)NC(=O)CNC(=O)[C@@H](N)Cc1c[nH]cn1)[C@@H](C)O)[C@@H](C)O)C(C)C)C(=O)N[C@@H](CCC(=O)O)C(=O)N[C@@H](Cc1ccccc1)C(=O)N[C@@H](CC(C)C)C(=O)N[C@@H](CCCCN)C(=O)N[C@@H](CC(N)=O)C(N)=O [Compound 7], the “% drop in glucose” value (C57BLKS/J-m-db mice) is reported as 31% and the EC50 [2] is reported as 63.6 nM.
For CC[C@H](C)[C@H](NC(=O)[C@H](Cc1ccccc1)NC(=O)[C@H](CC(C)C)NC(=O)[C@H](CCCNC(=N)N)NC(=O)[C@@H](NC(=O)[C@H](C)NC(=O)[C@H](CCC(=O)O)NC(=O)[C@H](CCC(=O)O)NC(=O)[C@H](CCC(=O)O)NC(=O)[C@H](CC(C)C)NC(=O)[C@H](CCC(N)=O)NC(=O)[C@H](CCCCN)NC(=O)[C@H](C)NC(=O)[C@H](CC(C)C)NC(=O)[C@H](CC(=O)O)NC(=O)[C@H](CO)NC(=O)[C@@H](NC(=O)[C@H](Cc1ccccc1)NC(=O)[C@@H](NC(=O)CNC(=O)[C@H](CCC(=O)O)NC(=O)CNC(=O)[C@@H](N)Cc1c[nH]cn1)[C@@H](C)O)[C@@H](C)O)C(C)C)C(=O)N[C@@H](CCC(=O)O)C(=O)N[C@@H](Cc1ccccc1)C(=O)N[C@@H](CC(C)C)C(=O)N[C@@H](CCCCN)C(=O)N[C@@H](CC(N)=O)C(N)=O [Compound 9], the “% drop in glucose” value (C57BLKS/J-m-db mice) was 41% and the EC50 [2] was 1.68 nM.
